Source: paper PMC9963138 (Molecules, 2023)
“Also recorded” adds a separate entry of the source. Positions of bridges follow the written chain, without caps; N, C: chain ends. Non-standard residues stand in square brackets, D forms with d. Residues, ends and D or L forms follow the SMILES beside them. Pen = CC(C)(S)[C@H](N)C(=O)O; Orn = NCCC[C@H](N)C(=O)O

Key:
μ-opioid receptors (MOR) [1] = details: cited from earlier work
μ-opioid receptors (MOR) [2] = details: cited from earlier work; remark: listed apart in the source
C57BL/6J mice [3] = experiment: Breathing rate in mice (Oxymax/CLAMS), morphine-induced respiratory depression; assay type: in vivo
Experimental: Mice were administered intranasal saline or OL-CTOP (100 or 600 μg) 45 min prior to intraperitoneal morphine (20 mg/kg).
Respiration rates (in breaths per minute) were assessed using the Oxymax/CLAMS system (Columbus Instruments, Columbus, OH, USA) as described previously. Mice were habituated to their individual sealed housing chambers for 60 min before testing. Mice were administered morphine (20 mg/kg, i.p.) or vehicle, as indicated, and 5 min later, confined to the CLAMS testing chambers. Additional mice received pretreatment with saline (i.n.s.) or OL-CTOP (100 or 600 μg, i.n.s.) 45 min prior to morphine (20 mg/kg, i.p.). Pressure monitoring within the sealed chambers measured the frequency of respiration. Respiration data were averaged over 20 min periods for 120 min post-i.p. injection of the saline or morphine. Data are presented as % vehicle response ± SEM, breaths per minute.

DOR = DOR (Mus musculus, UniProt P32300); experiment: 55 °C warm-water tail-withdrawal test, antagonism of DOR-selective agonist SNC-80; details: mice; 100 μg i.n.s. pretreatment; SNC-80 100 nmol i.c.v.; p = 0.67; 7–8 mice
Experimental: (§1) All solutions for animal administration were prepared fresh daily. All mice were lightly anesthetized with isoflurane (0.4%) prior to compound administration. […] The volume of all i.c.v. injections was 5 μL, using a 10-μL Hamilton microliter syringe. An incision was made in the scalp of the lightly anesthetized mouse, and the injection was made 2 mm lateral and 2 mm caudal to bregma at a depth of 3 mm.
(§2) The distal 2.5 cm of a mouse tail was immersed in warm (55 °C) water contained in a 1.5-L heated water bath. The time from the onset of the noxious heat stimulus to the withdrawal of the tail from the heat source was recorded.

asialofetuin (ASF) = molecular target: T1, asialofetuin (ASF) (Bos taurus, UniProt P12763); experiment: Carbohydrate-binding study by isothermal titration calorimetry (ITC)
T1 construct: purchased Sigma-Aldrich
T1 sequence (P12763 19-359): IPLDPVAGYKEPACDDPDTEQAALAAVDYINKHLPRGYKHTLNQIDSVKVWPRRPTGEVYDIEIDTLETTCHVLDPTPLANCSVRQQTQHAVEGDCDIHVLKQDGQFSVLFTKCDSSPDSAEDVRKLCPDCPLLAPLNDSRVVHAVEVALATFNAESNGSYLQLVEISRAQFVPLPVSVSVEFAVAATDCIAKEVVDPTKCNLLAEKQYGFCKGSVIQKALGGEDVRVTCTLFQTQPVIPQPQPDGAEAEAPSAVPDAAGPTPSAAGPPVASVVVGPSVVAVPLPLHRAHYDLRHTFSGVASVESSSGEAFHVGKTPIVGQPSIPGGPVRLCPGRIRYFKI
Experimental: We have shown previously that odorranalectin binds to model glycoproteins containing terminal Fuc, Gal and GalNAc sugar moieties with μM affinities and identified the binding interface. […] The binding affinities of OL-CTOP toward ASF were determined by Isothermal Titration Calorimetry (ITC). […] The enthalpy (ΔH) of the binding interaction between OL-CTOP and ASF was −131 kJ/mol, whereas the entropy (−TΔS) was 109.5 kJ/mol, showing that the OL-CTOP/ASF interaction is an enthalpy-driven process, which is typical for interactions between lectins and carbohydrate ligands.
A binding study was performed at 25 °C in 20 mM HEPES at pH 7.0 by using a titration calorimeter PEAQ-ITC (Malvern, Northampton, MA) with a reaction cell volume of 300 μL. Typically, asialofetuin solutions (240 μM) were in the reaction cell and titrated with solutions of OL-CTOP at a concentration of 4000 μM. OL-CTOP and asialofetuin were dialyzed and prepared in the same buffer. At least 18 consecutive injections of 2 μL were applied every 120 s interval at a constant stir speed of 750 rpm. The concentrations of OL-CTOP and ASF were confirmed by measurements using a BioTek Epoch microplate spectrophotometer (Agilent Technologies, Santa Clara, CA, USA). The raw integrated heat plots were analyzed using the MicroCal PEAQ-ITC software v1.21 (Malvern) under the 1-set-of-sites model, and the control parameter as a fitted offset was applied to each titration as per the manufacturer’s guidelines and our previous applications. The reported thermodynamic parameters were derived from two independent experiments and then averaged.

MOR = molecular target: T2, MOR (Mus musculus, UniProt P42866); experiment: 55 °C warm-water tail-withdrawal test, antagonism of i.c.v. morphine; assay type: in vivo, C57BL/6J mice; details: mice, p = 0.003
T2 construct: MOR antagonism by CTOP was confirmed in vivo by pretreating mice with the parent peptide; from tissue; host or cells: living male C57BL/6J mice (central nervous system)

C57BL/6J mice [4] = experiment: 55 °C warm-water tail-withdrawal test, compound alone
Experimental: Graded doses of OL-CTOP (100, 300 or 600 μg) were first administered through the intranasal (i.n.s.) route.
All mice were lightly anesthetized with isoflurane (0.4%) prior to compound administration. […] The volume of all i.c.v. injections was 5 μL, using a 10-μL Hamilton microliter syringe. An incision was made in the scalp of the lightly anesthetized mouse, and the injection was made 2 mm lateral and 2 mm caudal to bregma at a depth of 3 mm.
The 55 °C warm-water tail-withdrawal test was performed as previously described [73]. The distal 2.5 cm of a mouse tail was immersed in warm (55 °C) water contained in a 1.5-L heated water bath. The time from the onset of the noxious heat stimulus to the withdrawal of the tail from the heat source was recorded.

[5] = molecular target: T3, trypsin immobilized on agarose resin (Bos taurus, UniProt P00760); experiment: Proteolytic stability toward immobilized trypsin; details: RP-HPLC and MALDI-TOF MS
T3 sequence (P00760 24-246): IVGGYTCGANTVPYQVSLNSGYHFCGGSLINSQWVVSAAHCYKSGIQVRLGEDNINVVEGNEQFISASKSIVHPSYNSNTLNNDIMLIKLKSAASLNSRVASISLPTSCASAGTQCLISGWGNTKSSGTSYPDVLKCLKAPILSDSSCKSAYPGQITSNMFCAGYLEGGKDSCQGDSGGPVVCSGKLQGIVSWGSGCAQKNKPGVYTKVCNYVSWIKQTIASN
Experimental: Immobilized trypsin helped eliminate enzyme digest contamination and thus simplify sample analysis. […] After incubation at 37 °C for 20 min, 1 h, and 16 h, 20 μL of treated samples was collected and analyzed by analytical RP-HPLC and MALDI-TOF MS (Supplementary Materials).

KOR = KOR (Mus musculus, UniProt P33534); experiment: 55 °C warm-water tail-withdrawal test, antagonism of KOR-selective agonist U50,488; details: mice; 100 μg i.n.s. pretreatment; U50,488 100 nmol i.c.v.; p = 0.99; 7–8 mice
Experimental: as §1, §2

[6] = test system: tosylsulfonyl phenylalanyl chloromethyl ketone (TPCK) trypsin immobilized on agarose resin; experiment: TPCK trypsin immobilized on agarose resin in digestion buffer (0.1 M NH4HCO3 [pH 8.0]); details: 37 °C, up to 16 h (methods); 24 h (results, b12 and Figure 2)
[7] = test system: model glycoproteins containing terminal Fuc, Gal and GalNAc sugar moieties; details: cited from earlier work
Source text: We have shown previously that odorranalectin binds to model glycoproteins containing terminal Fuc, Gal and GalNAc sugar moieties with μM affinities and identified the binding interface.

[8] = in vivo; cited from earlier work
Source text: Opioid medication misuse, addiction, and overdose are growing public health problems nationwide. Methadone, buprenorphine, naltrexone and naloxone are the only FDA-approved medications to treat opioid use disorder (OUD) and, in the case of opioid receptor antagonists naltrexone and naloxone, overdose. […] Given their potency, peptides represent particularl ...

[9] = 25 °C, 20 mM HEPES pH 7.0, average of two independent experiments

T2 sequence (P42866 whole entry): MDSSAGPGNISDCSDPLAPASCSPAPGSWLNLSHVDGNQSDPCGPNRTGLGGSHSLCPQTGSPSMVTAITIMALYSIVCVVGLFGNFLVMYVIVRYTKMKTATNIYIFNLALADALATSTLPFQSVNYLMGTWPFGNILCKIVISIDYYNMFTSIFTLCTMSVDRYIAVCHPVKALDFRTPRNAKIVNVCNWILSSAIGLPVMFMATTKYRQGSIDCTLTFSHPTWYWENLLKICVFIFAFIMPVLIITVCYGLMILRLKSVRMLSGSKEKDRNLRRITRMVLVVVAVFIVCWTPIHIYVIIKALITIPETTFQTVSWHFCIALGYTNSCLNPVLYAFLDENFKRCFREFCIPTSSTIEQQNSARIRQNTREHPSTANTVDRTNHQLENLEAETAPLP
DOR, sequence (P32300 whole entry): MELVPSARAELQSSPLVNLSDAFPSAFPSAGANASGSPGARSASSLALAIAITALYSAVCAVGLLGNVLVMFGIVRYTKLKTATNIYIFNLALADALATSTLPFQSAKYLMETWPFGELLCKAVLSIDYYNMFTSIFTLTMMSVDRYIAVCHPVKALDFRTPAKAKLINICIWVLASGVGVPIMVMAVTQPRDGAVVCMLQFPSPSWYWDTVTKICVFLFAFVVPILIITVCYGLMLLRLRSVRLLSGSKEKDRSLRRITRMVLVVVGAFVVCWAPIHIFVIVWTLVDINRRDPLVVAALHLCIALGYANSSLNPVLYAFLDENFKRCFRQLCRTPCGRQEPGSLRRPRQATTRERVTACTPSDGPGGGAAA
KOR, sequence (P33534 whole entry): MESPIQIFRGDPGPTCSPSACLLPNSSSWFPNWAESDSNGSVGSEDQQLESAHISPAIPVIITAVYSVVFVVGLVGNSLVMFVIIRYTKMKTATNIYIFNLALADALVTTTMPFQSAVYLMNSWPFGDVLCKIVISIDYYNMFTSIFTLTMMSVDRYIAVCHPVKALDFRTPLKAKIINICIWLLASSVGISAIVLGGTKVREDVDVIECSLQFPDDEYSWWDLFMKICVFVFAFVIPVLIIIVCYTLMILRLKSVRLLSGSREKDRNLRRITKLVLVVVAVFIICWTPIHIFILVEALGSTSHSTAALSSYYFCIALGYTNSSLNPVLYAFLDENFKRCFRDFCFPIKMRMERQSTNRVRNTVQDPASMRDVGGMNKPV

C[C@@H](O)[C@H](NC(=O)[C@H]1NC(=O)[C@H]([C@@H](C)O)NC(=O)[C@H](CCCN)NC(=O)[C@@H](Cc2c[nH]c3ccccc23)NC(=O)[C@H](Cc2ccc(O)cc2)NC(=O)[C@@H](NC(=O)[C@H](N)Cc2ccccc2)CSSC1(C)C)C(N)=O [CTOP, H-D-Phe-cyclo(Cys-Tyr-D-Trp-Orn-Thr-Pen)-Thr-NH2]
affinity for μ-opioid receptors (MOR) (μ-opioid receptors (MOR) [1]): 2.8 nM
MOR antagonism, times more potent than naloxone (μ-opioid receptors (MOR) [2]): 10–400 times

C[C@H](NC(=O)[C@@H](N)Cc1ccc(O)cc1)C(=O)N[C@@H](CO)C(=O)N1CCC[C@H]1C(=O)N[C@@H](CCCCN)C(=O)N[C@H]1CSSC[C@@H](C(=O)N[C@H](C(N)=O)[C@@H](C)O)NC(=O)[C@H]([C@@H](C)O)NC(=O)[C@H]2NC(=O)[C@H]([C@@H](C)O)NC(=O)[C@H](CCCN)NC(=O)[C@@H](Cc3c[nH]c4ccccc34)NC(=O)[C@H](Cc3ccc(O)cc3)NC(=O)[C@H](CSSC2(C)C)NC(=O)[C@@H](Cc2ccccc2)NC(=O)[C@H](CCCNC(=N)N)NC(=O)[C@H](Cc2ccccc2)NC1=O [OL-CTOP] (H-YASPKCFR[dF]CY[dW][Orn]T[Pen]TCT-NH2; disulfide 6-17, 10-15; N-terminus assumed)
protection from morphine-induced respiratory depression, 100 μg (C57BL/6J mice [3]; 100 μg i.n.s. 45 min prior to morphine 20 mg/kg i.p., p = 0.05 at 20–40 min, p = 0.02 at 40–60 min vs morphine alone): significantly prevented morphine-induced respiratory depression
respiration rate versus vehicle-treated mice, late period, 100 μg (C57BL/6J mice [3]; 100 μg i.n.s. before morphine 20 mg/kg i.p., 60–120 min, p ≤ 0.03): elevated respiration
respiration rate versus vehicle-treated mice out to 60 min, 100 μg (C57BL/6J mice [3]; 100 μg i.n.s. before morphine 20 mg/kg i.p., p = 0.06, 0.55 and 0.75): no significant differences in respiration rate
protection from morphine-induced respiratory depression, 600 μg (C57BL/6J mice [3]; 600 μg i.n.s. 45 min prior to morphine 20 mg/kg i.p., p ≤ 0.009, 0–60 min vs morphine alone): significantly prevented morphine-induced respiratory depression
respiration rate versus vehicle-treated mice, 600 μg (C57BL/6J mice [3]; 600 μg i.n.s. before morphine 20 mg/kg i.p., 20–120 min, p ≤ 0.04): elevated respiration
antagonism of DOR-selective agonist SNC-80 (DOR): without effect
ΔG of binding (asialofetuin (ASF); 20 mM HEPES pH 7.0, one-set-of-sites model): -5.14 kcal/mol
Kd (asialofetuin (ASF); 25 °C, 20 mM HEPES pH 7.0, ASF 240 μM in cell, peptide 4000 μM, one-set-of-sites model, average of two independent experiments, read-out: Kd, OL-CTOP/ASF binding): 176 µM
enthalpy (ΔH) of binding (asialofetuin (ASF); [9]): -31.3 kcal/mol
entropy (−TΔS) of binding (asialofetuin (ASF); [9]): 26.17 kcal/mol
antagonism of MOR-preferring agonist morphine (selectivity test) (MOR; 100 μg i.n.s. pretreatment, morphine 10 nmol i.c.v., 7–8 mice): significant antagonism
antagonism of morphine antinociception, intranasal pretreatment 30-600 μg (MOR; 30, 100, 300 or 600 μg i.n.s., morphine 10 nmol i.c.v. after return to baseline at 45 min, latency 20, 30, 40 min afterward, five to eight mice): significant general reduction in the antinociceptive effect of morphine
increase in tail withdrawal latency from baseline, peptide alone (C57BL/6J mice [4]; mice, 100, 300 or 600 μg i.n.s., out to 30 min post-administration, p = 0.01): ~ 1 s
further cleavage after 1 h incubation with trypsin ([5]; 1 h, immobilized TPCK trypsin, 0.1 M NH4HCO3 pH 8.0, 37 °C): the peptide bond between Arg^8 and phe^9 was also cleaved
parent peptide remaining after the first 10 min with trypsin ([5]; TPCK trypsin immobilized on agarose, 20 TAME units, 0.1 M NH4HCO3 pH 8.0, 1 mg peptide, 37 °C): without a detectable trace of the parent peptide
antagonism of KOR-selective agonist U50,488 (KOR): without effect

CN1CC[C@]23c4c5ccc(O)c4O[C@H]2[C@@H](O)C=C[C@H]3[C@H]1C5 [morphine, reference compound]
respiration after morphine with saline pretreatment versus vehicle alone (C57BL/6J mice [3]; morphine 20 mg/kg i.p. after i.n.s. saline, 10–60 min, p < 0.0001): significant, time-dependent respiratory depression
tail-withdrawal latency after the agonist alone (C57BL/6J mice [4]; control (naïve) mice, 10 nmol i.c.v., versus baseline 1.49 ± 0.09 s, p < 0.0001): significant increase in tail-withdrawal latency

Y-A-S-P-K-C-F-R-f-C-Y-w-O-T-Pen-T-C-T-NH2
cleaved bond [6]: K-C, first_seen, within the first 10 min; also recorded: Arg8-phe9, major, 1 h

YASPK-cyclo(CFRYPNGVLAC)T (disulfide) [odorranalectin]
affinity for model glycoproteins [7]: μM affinities

oxytocin
plasma t1/2 [8]: 1 to 6 min
t1/2 in the extracellular space of the brain and in the CSF [8]: approximately 30 min
